Source: US10781204B2, “TYK2 inhibitors and uses thereof” (Nimbus Lakshmi, Inc., priority 2015, dated 2020)

Assays:
[1] = test system: JAK2-pSTAT5 (GM-CSF induced pSTAT5); test: GM-CSF induced pSTAT5 in human PBMC; type: cell-based; details: 5 ng/mL GM-CSF
Method in brief: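 Thawed human PBMC, 200,000 per well in serum-containing medium, were preincubated 1 hr at 37 C with compound in 0.1% DMSO. GM-CSF at 5 ng/mL final was added for 20 minutes, then pSTAT5 and total STAT5 in lysates were measured by MSD immunoassay.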

[2] = test system: Tyk2-pSTAT4 (IL-12 induced pSTAT4); test: IL-12 induced pSTAT4 in human PBMC; type: cell-based; details: 1.7 ng/mL IL-12, 30 minutes
Method in brief: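 Thawed human PBMC (200,000 cells/well, serum-containing medium) preincubated with compound 1 hr at 37 C, 0.1% DMSO final. Stimulated with 1.7 ng/mL IL-12 (final) for 30 minutes; pSTAT4 and total STAT4 in lysates measured by MSD immunoassay.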

JAK2 = JAK2 (Homo sapiens (Human), UniProt O60674); test: JAK2 radioactive kinase assay; type: biochemical; details: ATP 10 μM
Method in brief: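 Radiometric assay in Hepes pH 7.5, MgCl2, EGTA, Brij35, BSA, DTT, 1% DMSO, with 10 μM [33P]ATP, 120 min at room temp; P81 paper capture and counting. […]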

TYK2 = TYK2 (Homo sapiens (Human), UniProt P29597); test: Tyk2 radioactive kinase assay; type: biochemical; details: ATP 10 μM
Method in brief: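 Recombinant human TYK2 (Invitrogen) was mixed with 20 μM peptide substrate in a buffer of 20 mM Hepes pH 7.5, 10 mM MgCl2, 1 mM EGTA, 0.02% Brij35, 0.02 mg/mL BSA, 0.1 mM […], 2 mM DTT and 1% DMSO, and compounds in DMSO were added. Adding ^33P-ATP (10 μM ATP) started the reaction, which ran 120 min at room temperature. Mixtures were then spotted onto P81 ion-exchange paper, washed thoroughly in 0.75% phosphoric acid, and counted for radioactivity.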

Sequence of TYK2 (P29597 whole entry): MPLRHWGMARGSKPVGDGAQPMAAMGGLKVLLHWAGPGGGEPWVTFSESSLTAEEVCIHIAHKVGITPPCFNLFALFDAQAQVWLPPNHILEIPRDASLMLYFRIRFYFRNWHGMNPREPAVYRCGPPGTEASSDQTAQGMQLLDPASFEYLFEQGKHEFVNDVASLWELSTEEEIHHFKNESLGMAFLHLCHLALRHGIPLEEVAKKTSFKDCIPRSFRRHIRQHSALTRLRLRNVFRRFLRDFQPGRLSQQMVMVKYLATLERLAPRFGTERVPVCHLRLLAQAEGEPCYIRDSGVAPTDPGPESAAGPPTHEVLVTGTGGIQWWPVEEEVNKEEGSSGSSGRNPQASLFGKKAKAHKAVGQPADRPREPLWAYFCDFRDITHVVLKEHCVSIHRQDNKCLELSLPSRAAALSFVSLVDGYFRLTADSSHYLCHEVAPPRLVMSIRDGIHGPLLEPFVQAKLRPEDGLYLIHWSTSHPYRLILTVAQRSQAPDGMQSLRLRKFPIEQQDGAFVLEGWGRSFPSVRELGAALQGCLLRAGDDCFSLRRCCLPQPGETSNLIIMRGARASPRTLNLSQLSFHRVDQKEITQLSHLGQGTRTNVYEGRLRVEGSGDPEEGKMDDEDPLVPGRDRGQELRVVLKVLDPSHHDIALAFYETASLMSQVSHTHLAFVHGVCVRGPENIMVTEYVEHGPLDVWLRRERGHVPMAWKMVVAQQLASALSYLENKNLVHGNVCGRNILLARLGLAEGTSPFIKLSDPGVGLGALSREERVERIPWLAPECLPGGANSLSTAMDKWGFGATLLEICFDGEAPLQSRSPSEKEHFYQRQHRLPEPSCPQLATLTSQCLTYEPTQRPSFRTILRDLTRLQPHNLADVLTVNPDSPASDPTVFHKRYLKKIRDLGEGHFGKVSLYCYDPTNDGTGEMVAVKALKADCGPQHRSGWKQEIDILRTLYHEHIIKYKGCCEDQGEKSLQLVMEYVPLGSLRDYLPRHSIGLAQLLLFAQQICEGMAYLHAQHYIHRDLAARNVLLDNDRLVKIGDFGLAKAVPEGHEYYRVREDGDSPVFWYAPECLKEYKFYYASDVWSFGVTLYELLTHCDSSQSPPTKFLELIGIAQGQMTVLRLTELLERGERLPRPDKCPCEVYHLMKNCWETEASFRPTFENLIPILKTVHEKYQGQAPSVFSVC
Sequence of JAK2 (O60674 whole entry): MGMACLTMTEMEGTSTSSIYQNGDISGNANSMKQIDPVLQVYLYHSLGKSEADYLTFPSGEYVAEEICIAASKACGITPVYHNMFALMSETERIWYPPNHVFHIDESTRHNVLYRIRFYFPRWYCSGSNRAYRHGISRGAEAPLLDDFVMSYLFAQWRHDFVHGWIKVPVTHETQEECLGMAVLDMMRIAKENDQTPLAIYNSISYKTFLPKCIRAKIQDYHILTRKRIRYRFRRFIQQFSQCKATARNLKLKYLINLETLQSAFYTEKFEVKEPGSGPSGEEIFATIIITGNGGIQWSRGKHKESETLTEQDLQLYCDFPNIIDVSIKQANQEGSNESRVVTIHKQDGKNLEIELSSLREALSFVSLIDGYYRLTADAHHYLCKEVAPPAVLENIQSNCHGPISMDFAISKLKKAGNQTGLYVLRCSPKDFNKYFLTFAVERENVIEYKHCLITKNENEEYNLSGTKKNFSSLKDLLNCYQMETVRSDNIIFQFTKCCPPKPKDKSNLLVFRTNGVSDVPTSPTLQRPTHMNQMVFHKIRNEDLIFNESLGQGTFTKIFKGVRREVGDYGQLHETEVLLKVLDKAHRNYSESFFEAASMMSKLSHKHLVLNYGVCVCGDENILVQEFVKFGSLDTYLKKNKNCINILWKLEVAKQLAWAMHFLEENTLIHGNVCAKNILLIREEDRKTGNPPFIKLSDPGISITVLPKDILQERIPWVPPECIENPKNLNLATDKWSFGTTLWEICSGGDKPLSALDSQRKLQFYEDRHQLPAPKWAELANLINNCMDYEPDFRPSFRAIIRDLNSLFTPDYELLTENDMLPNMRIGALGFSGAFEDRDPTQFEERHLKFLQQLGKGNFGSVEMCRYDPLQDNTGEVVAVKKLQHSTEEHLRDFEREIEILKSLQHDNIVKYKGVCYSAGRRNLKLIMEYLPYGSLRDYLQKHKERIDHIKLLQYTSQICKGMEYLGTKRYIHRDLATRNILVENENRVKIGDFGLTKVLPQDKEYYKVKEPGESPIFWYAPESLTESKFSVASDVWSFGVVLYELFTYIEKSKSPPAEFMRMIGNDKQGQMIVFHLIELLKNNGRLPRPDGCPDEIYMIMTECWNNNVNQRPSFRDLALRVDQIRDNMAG

| SMILES | EC50 ([1]; Homo sapiens, PBMC, 20 min) | EC50 ([2]; Homo sapiens, PBMC, 0.5 h) | Ki (JAK2) | Ki (TYK2) | EC50 ([1]; 20 minutes) | EC50 [2] |
| --- | --- | --- | --- | --- | --- | --- |
| CC(C)c1csc(-c2cc(-c3c(F)cccc3F)nc3c2C(=O)NC3)n1 [I-233, 2-(2,6-difluorophenyl)-4-(4-isopropylthiazol-2-yl)-6,7-dihydro-5H-pyrrolo[3,4-b]pyridin-5-one] | > 2000 nM | > 2000 nM | ≥ 1000 nM | 10 to 100 nM | – | – |
| CC(C)n1ccc(-c2cc(-c3c(F)cccc3C#N)nc3c2C(=O)NC3)n1 [I-57, 3-fluoro-2-(4-(1-isopropyl-1H-pyrazol-3-yl)-5-oxo-6,7-dihydro-5H-pyrrolo[3,4-b]pyridin-2-yl)benzonitrile] | 100 to 2000 nM | 100 to 2000 nM | 100 to 1000 nM | 0.1 to 10 nM | – | – |
| N#Cc1cccc(F)c1-c1cc(-n2ccc(N3CCC(N4CCOCC4)CC3)n2)c2c(n1)CNC2=O [I-59, 3-fluoro-2-(4-(3-(4-morpholinopiperidin-1-yl)-1H-pyrazol-1-yl)-5-oxo-6,7-dihydro-5H-pyrrolo[3,4-b]pyridin-2-yl)benzonitrile] | – | – | 0.1 to 10 nM | 0.1 to 10 nM | 100 to 2000 nM | 100 to 2000 nM |
| CO[C@H]1CN(c2ccn(-c3cc(-c4c(F)cccc4C#N)nc4c3C(=O)NC4)n2)CC[C@H]1OC [I-176, 2-(4-(3-((3S,4R)-3,4-dimethoxypiperidin-1-yl)-1H-pyrazol-1-yl)-5-oxo-6,7-dihydro-5H-pyrrolo[3,4-b]pyridin-2-yl)-3-fluorobenzonitrile] | 100 to 2000 nM | 100 to 2000 nM | 10 to 100 nM | 0.1 to 10 nM | – | – |
| CC1=C(c2ccn(-c3cc(-c4c(F)cccc4C#N)nc4c3C(=O)NC4)n2)CNC1=O [I-227, 3-fluoro-2-(4-(3-(4-methyl-5-oxo-2,5-dihydro-1H-pyrrol-3-yl)-1H-pyrazol-1-yl)-5-oxo-6,7-dihydro-5H-pyrrolo[3,4-b]pyridin-2-yl)benzonitrile] | 100 to 2000 nM | 100 to 2000 nM | 10 to 100 nM | 0.1 to 10 nM | – | – |
| CC(C)c1ncn(-c2cc(-c3c(F)cccc3C#N)nc3c2C(=O)NC3)n1 [I-232, 3-fluoro-2-(4-(3-isopropyl-1H-1,2,4-triazol-1-yl)-5-oxo-6,7-dihydro-5H-pyrrolo[3,4-b]pyridin-2-yl)benzonitrile] | 100 to 2000 nM | > 2000 nM | ≥ 1000 nM | ≥ 1000 nM | – | – |
| N#Cc1cccc(F)c1-c1cc(-c2ccn(C(=O)N3CCOCC3)n2)c2c(n1)CNC2=O [I-231, 3-fluoro-2-(4-(1-(morpholine-4-carbonyl)-1H-pyrazol-3-yl)-5-oxo-6,7-dihydro-5H-pyrrolo[3,4-b]pyridin-2-yl)benzonitrile] | > 2000 nM | > 2000 nM | 100 to 1000 nM | 10 to 100 nM | – | – |
| [2H]C1([2H])NC(=O)c2c(-n3ccc(N4C([2H])([2H])C[C@@](O)(C([2H])([2H])[2H])C4([2H])[2H])n3)cc(-c3c(F)cccc3C#N)nc21 [I-206, (S)-3-fluoro-2-(4-(3-(3-hydroxy-3-(methyl-d3)pyrrolidin-1-yl-2,2,5,5-d4)-1H-pyrazol-1-yl)-5-oxo-6,7-dihydro-5H-pyrrolo[3,4-b]pyridin-2-yl-7,7-d2)benzonitrile] | 100 to 2000 nM | 30 to 100 nM | 10 to 100 nM | 0.1 to 10 nM | – | – |

Continued, in another order:

| EC50 ([1]; Homo sapiens, PBMC, 20 min) | EC50 ([2]; Homo sapiens, PBMC, 0.5 h) | Ki (JAK2) | Ki (TYK2) | SMILES | EC50 ([1]; 20 minutes) | EC50 [2] |
| --- | --- | --- | --- | --- | --- | --- |
| 100 to 2000 nM | 30 to 100 nM | 10 to 100 nM | 0.1 to 10 nM | [2H]C1([2H])NC(=O)c2c(-n3ccc(N4CCC[C@@](C)(O)C4)n3)cc(-c3c(F)cccc3C#N)nc21 [I-111, (R)-3-fluoro-2-(4-(3-(3-hydroxy-3-methylpiperidin-1-yl)-1H-pyrazol-1-yl)-5-oxo-6,7-dihydro-5H-pyrrolo[3,4-b]pyridin-2-yl-7,7-d2)benzonitrile] | – | – |
| > 2000 nM | 30 to 100 nM | 10 to 100 nM | 0.1 to 10 nM | CC1(C)[C@H](O)CCN1c1ccn(-c2cc(-c3c(F)cccc3C#N)nc3c2C(=O)NC3)n1 [I-204, (R)-3-fluoro-2-(4-(3-(3-hydroxy-2,2-dimethylpyrrolidin-1-yl)-1H-pyrazol-1-yl)-5-oxo-6,7-dihydro-5H-pyrrolo[3,4-b]pyridin-2-yl)benzonitrile] | – | – |
| > 2000 nM | 100 to 2000 nM | 10 to 100 nM | 0.1 to 10 nM | CCNC(=O)[C@@H]1CCCN(c2ccn(-c3cc(-c4c(F)cccc4C#N)nc4c3C(=O)NC4)n2)C1 [I-172, (R)-1-(1-(2-(2-cyano-6-fluorophenyl)-5-oxo-6,7-dihydro-5H-pyrrolo[3,4-b]pyridin-4-yl)-1H-pyrazol-3-yl)-N-ethylpiperidine-3-carboxamide] | – | – |
| > 2000 nM | 100 to 2000 nM | 0.1 to 10 nM | 0.1 to 10 nM | C[C@]1(O)CCCN(c2ccn(-c3cc(-c4c(F)cccc4C#N)nc4c3C(=O)NC4)n2)C1 [I-72, (S)-3-fluoro-2-(4-(3-(3-hydroxy-3-methylpiperidin-1-yl)-1H-pyrazol-1-yl)-5-oxo-6,7-dihydro-5H-pyrrolo[3,4-b]pyridin-2-yl)benzonitrile] | – | – |
| 100 to 2000 nM | 30 to 100 nM | 10 to 100 nM | 0.1 to 10 nM | CO[C@H]1CCN(c2ccn(-c3cc(-c4c(F)cccc4C#N)nc4c3C(=O)NC4)n2)C[C@@H]1O [I-210, 3-fluoro-2-(4-(3-((3S,4S)-3-hydroxy-4-methoxypiperidin-1-yl)-1H-pyrazol-1-yl)-5-oxo-6,7-dihydro-5H-pyrrolo[3,4-b]pyridin-2-yl)benzonitrile] | – | – |
| 100 to 2000 nM | 100 to 2000 nM | 0.1 to 10 nM | 0.009 to 0.1 nM | N#Cc1cccc(F)c1-c1cc(-n2ccc(N3CCNC(=O)CC3)n2)c2c(n1)CNC2=O [I-141, 3-fluoro-2-(5-oxo-4-(3-(5-oxo-1,4-diazepan-1-yl)-1H-pyrazol-1-yl)-6,7-dihydro-5H-pyrrolo[3,4-b]pyridin-2-yl)benzonitrile] | – | – |
| 100 to 2000 nM | – | 10 to 100 nM | 0.1 to 10 nM | N#Cc1cccc(F)c1-c1cc(-n2ccc(N3CC[C@H](C#N)[C@@H](O)C3)n2)c2c(n1)CNC2=O [I-215, (3R,4R)-1-(1-(2-(2-cyano-6-fluorophenyl)-5-oxo-6,7-dihydro-5H-pyrrolo[3,4-b]pyridin-4-yl)-1H-pyrazol-3-yl)-3-hydroxypiperidine-4-carbonitrile] | – | 100 to 2000 nM |
| 100 to 2000 nM | 30 to 100 nM | 0.1 to 10 nM | 0.009 to 0.1 nM | N#Cc1cccc(F)c1-c1cc(-n2ccc(N3CCC[C@@](N)(C(F)(F)F)C3)n2)c2c(n1)CNC2=O [I-118, (S)-2-(4-(3-(3-amino-3-(trifluoromethyl)piperidin-1-yl)-1H-pyrazol-1-yl)-5-oxo-6,7-dihydro-5H-pyrrolo[3,4-b]pyridin-2-yl)-3-fluorobenzonitrile] | – | – |
| 100 to 2000 nM | 100 to 2000 nM | 10 to 100 nM | 0.1 to 10 nM | N#Cc1cccc(F)c1-c1cc(-n2ccc(N3CCC(O)CC3)n2)c2c(n1)CNC2=O [I-56, 3-fluoro-2-(4-(3-(4-hydroxypiperidin-1-yl)-1H-pyrazol-1-yl)-5-oxo-6,7-dihydro-5H-pyrrolo[3,4-b]pyridin-2-yl)benzonitrile] | – | – |
| 100 to 2000 nM | 100 to 2000 nM | 0.1 to 10 nM | 0.1 to 10 nM | N#Cc1cccc(F)c1-c1cc(-n2ccc(N3CC[C@]4(C3)OC[C@H](O)CO4)n2)c2c(n1)CNC2=O [I-221, 3-fluoro-2-(4-(3-((5r,8r)-8-hydroxy-6,10-dioxa-2-azaspiro-[4.5]decan-2-yl)-1H-pyrazol-1-yl)-5-oxo-6,7-dihydro-5H-pyrrolo[3,4-b]pyridin-2-yl)benzonitrile] | – | – |
